ChEMBL document CHEMBL4270575, “Lead-like Drugs: A Perspective” (J Med Chem, 2018)
pIC50: −log10 of the molar value.

Tests used:
[1] = molecular target: T1, 3',5'-cyclic-AMP phosphodiesterase 4B (Homo sapiens, UniProt Q07343); assay: Inhibition of PDE4B1 (unknown origin)
[2] = molecular target: T1, 3',5'-cyclic-AMP phosphodiesterase 4B; assay: Inhibition of PDE4B2 (unknown origin)
[3] = molecular target: 3',5'-cyclic-AMP phosphodiesterase 4D (Homo sapiens, UniProt Q08499); assay: Inhibition of PDE4D7 (unknown origin)
Chain of 3',5'-cyclic-AMP phosphodiesterase 4D (Q08499 whole entry): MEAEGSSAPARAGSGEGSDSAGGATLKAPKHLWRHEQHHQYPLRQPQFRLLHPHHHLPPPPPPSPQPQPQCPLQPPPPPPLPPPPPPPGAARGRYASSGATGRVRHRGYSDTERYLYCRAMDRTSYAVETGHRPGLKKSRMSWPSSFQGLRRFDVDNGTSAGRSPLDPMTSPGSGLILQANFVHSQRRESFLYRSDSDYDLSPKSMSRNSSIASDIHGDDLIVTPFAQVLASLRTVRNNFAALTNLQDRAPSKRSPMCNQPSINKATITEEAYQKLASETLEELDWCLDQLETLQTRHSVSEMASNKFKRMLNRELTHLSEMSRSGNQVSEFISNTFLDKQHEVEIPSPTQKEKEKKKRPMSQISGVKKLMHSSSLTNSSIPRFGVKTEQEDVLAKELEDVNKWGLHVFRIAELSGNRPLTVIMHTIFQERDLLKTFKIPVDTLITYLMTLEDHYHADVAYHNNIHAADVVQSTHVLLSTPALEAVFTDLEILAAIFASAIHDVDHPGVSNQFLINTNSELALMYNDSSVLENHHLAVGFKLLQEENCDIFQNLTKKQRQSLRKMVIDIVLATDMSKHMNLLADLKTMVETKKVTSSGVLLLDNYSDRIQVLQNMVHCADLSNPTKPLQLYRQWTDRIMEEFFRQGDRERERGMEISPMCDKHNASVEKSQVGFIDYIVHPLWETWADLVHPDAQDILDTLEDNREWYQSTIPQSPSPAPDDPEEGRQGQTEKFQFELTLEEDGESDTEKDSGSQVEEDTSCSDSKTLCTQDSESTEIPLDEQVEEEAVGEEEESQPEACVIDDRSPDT

[4] = molecular target: 3',5'-cyclic-AMP phosphodiesterase 4C (Homo sapiens, UniProt Q08493); assay: Inhibition of PDE4C1 (unknown origin)
Chain of 3',5'-cyclic-AMP phosphodiesterase 4C (Q08493 whole entry): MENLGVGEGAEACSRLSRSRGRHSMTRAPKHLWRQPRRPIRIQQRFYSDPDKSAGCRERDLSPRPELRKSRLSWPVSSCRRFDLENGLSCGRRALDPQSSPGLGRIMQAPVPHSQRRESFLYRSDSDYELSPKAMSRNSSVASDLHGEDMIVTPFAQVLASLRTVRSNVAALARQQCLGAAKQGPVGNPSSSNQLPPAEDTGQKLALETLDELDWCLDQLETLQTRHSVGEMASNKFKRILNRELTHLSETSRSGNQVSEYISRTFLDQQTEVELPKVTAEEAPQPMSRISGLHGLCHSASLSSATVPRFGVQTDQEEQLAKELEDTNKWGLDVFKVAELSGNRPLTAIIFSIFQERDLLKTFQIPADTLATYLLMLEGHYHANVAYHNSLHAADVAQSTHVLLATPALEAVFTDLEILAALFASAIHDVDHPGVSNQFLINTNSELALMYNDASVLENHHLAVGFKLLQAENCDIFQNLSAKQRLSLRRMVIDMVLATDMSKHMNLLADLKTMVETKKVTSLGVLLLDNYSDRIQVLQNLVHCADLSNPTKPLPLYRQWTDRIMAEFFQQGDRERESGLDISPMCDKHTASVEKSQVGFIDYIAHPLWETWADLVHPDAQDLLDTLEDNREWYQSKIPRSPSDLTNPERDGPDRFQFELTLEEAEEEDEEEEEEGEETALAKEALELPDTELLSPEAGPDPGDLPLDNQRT

[5] = molecular target: 3',5'-cyclic-AMP phosphodiesterase 4A (Homo sapiens, UniProt P27815); assay: Inhibition of PDE4A1A (unknown origin)
Chain of 3',5'-cyclic-AMP phosphodiesterase 4A (P27815 whole entry): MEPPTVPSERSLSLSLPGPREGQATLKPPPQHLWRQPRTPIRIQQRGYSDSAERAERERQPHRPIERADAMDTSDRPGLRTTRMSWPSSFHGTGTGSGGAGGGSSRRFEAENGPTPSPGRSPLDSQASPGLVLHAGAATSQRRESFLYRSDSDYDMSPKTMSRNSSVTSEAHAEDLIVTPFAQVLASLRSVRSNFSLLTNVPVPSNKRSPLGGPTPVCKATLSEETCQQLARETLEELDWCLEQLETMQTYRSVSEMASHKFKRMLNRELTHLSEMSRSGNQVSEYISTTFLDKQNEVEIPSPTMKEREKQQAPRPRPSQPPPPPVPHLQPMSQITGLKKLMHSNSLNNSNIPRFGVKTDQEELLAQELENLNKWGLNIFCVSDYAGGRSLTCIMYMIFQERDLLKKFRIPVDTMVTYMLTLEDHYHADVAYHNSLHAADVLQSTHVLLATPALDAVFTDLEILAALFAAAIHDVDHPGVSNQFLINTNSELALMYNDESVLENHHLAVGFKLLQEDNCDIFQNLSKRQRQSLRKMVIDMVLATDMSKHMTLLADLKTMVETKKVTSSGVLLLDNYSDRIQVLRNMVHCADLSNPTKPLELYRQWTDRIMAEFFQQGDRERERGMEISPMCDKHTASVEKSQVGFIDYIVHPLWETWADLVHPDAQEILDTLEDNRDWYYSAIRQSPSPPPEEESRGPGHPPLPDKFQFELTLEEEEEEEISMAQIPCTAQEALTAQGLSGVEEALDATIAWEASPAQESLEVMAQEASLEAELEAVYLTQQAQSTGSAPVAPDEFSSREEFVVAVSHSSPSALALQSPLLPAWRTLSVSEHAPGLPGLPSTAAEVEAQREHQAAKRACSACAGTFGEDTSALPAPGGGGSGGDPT

Measured: pIC50

T1 sequence (Q07343 whole entry): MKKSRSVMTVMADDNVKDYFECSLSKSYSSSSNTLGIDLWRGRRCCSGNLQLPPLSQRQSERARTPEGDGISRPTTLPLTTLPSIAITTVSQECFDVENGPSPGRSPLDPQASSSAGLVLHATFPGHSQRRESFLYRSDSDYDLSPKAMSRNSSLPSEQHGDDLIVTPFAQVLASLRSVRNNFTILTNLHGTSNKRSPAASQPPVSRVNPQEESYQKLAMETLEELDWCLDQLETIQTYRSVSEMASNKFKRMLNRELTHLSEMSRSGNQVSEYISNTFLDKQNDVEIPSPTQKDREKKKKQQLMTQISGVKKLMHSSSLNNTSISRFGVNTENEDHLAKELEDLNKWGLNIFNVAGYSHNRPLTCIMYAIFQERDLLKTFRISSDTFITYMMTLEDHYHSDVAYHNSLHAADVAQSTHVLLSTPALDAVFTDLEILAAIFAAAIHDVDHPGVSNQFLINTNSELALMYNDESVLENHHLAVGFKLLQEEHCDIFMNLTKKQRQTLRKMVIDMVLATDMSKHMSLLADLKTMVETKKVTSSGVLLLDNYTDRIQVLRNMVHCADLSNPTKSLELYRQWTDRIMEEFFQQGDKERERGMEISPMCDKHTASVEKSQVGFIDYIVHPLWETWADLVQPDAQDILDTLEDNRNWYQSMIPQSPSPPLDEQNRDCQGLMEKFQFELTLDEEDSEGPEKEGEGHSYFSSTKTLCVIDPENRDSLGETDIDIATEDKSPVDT

N#Cc1ccc(Oc2ccc3c(c2)COB3O)cc1 [CRISABOROLE]
6.47 to 7.26: [1] | [2] | [3] | [4] | [5]
